Measurements as given in patent publication US20250171437A1 (Agios Pharmaceuticals,Inc., priority 2022, published 2025).

Target: T1, human PAH with the R408W mutation (A375 R408W cells) (Homo sapiens, UniProt P00439, R408W)
T1 construct: expressed in transfected cells
T1 sequence (P00439 1-452 R408W): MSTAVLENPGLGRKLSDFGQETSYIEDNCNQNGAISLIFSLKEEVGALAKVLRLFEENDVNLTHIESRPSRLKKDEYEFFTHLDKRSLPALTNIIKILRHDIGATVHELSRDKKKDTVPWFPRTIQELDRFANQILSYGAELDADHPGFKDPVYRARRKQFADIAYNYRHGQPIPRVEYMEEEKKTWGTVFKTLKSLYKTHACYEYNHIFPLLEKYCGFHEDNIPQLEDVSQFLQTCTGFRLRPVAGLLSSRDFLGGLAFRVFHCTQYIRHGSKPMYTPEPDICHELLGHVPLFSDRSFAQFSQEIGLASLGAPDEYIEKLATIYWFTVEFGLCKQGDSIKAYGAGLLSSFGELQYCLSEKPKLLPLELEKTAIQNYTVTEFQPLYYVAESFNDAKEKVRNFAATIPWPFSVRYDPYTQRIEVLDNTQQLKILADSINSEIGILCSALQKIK
Assay: Cell Based Phenylalanine Flux Assay
Conditions: A375 R408W cells; 24 hrs with compound, then 20 μM sepiapterin and 800 μM 13C9,15N-Phenylalanine for 4 hours; 13C-Tyrosine by LC-MS; average where tested multiple times
In short: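 A375 cells stably expressing lentiviral human PAH R408W were treated with compounds (10-point 2-fold dilutions, 0.5% DMSO, duplicate) for 24 h at 37 °C. Then 20 μM sepiapterin and 800 μM 13C9,15N-Phe were added for 4 h; media 13C-Tyr was measured by LC-MS to give AC50.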

Row | Structure (SMILES) | AC50 [nM]
1 | C[C@@H](O)c1nc(C(F)F)c(C(=O)N2CCc3[nH]cnc3[C@@H]2c2nc3c(F)cccc3o2)o1 [Example 230, (4-(difluoromethyl)-2-((R)-1-hydroxyethyl)oxazol-5-yl)((R)-4-(4-fluorobenzo[d]oxazol-2-yl)-6,7-dihydro-1H-imidazo[4,5-c]pyridin-5(4H)-yl)methanone] | 1000 to 5000
2 | C[C@H](O)c1nc(C(F)F)c(C(=O)N2CCc3[nH]cnc3[C@H]2c2nc3ccc(F)cc3o2)o1 [Example 231, (4-(difluoromethyl)-2-((S)-1-hydroxyethyl)oxazol-5-yl)((S)-4-(6-fluorobenzo[d]oxazol-2-yl)-6,7-dihydro-1H-imidazo[4,5-c]pyridin-5(4H)-yl)methanone] | 500 to 1000
3 | C[C@H](O)c1nc(C(F)F)c(C(=O)N2CCc3[nH]cnc3[C@@H]2c2nc3ccc(F)cc3o2)o1 [Example 232, (4-(difluoromethyl)-2-((S)-1-hydroxyethyl)oxazol-5-yl)((R)-4-(6-fluorobenzo[d]oxazol-2-yl)-6,7-dihydro-1H-imidazo[4,5-c]pyridin-5(4H)-yl)methanone] | 1000 to 5000
4 | O=C(c1oc(C2(O)CC2)nc1C(F)F)N1CCc2[nH]cnc2[C@H]1c1nc2ccc(F)cc2o1 [Example 237, (S)-(4-(difluoromethyl)-2-(1-hydroxycyclopropyl)oxazol-5-yl)(4-(6-fluorobenzo[d]oxazol-2-yl)-6,7-dihydro-1H-imidazo[4,5-c]pyridin-5(4H)-yl)methanone] | 1000 to 5000
5 | O=C(c1oc(C2(O)CC2)nc1C(F)F)N1CCc2[nH]cnc2[C@@H]1c1nc2ccc(F)cc2o1 [Example 238, (R)-(4-(difluoromethyl)-2-(1-hydroxycyclopropyl)oxazol-5-yl)(4-(6-fluorobenzo[d]oxazol-2-yl)-6,7-dihydro-1H-imidazo[4,5-c]pyridin-5(4H)-yl)methanone] | 1000 to 5000
6 | C[C@@H](O)c1nc(C(F)F)c(C(=O)N2CCc3[nH]cnc3[C@H]2c2nc3ccc(F)cc3o2)o1 [Example 239, (4-(difluoromethyl)-2-((R)-1-hydroxyethyl)oxazol-5-yl)((S)-4-(6-fluorobenzo[d]oxazol-2-yl)-6,7-dihydro-1H-imidazo[4,5-c]pyridin-5(4H)-yl)methanone] | 500 to 1000
7 | C[C@@H](O)c1nc(C(F)F)c(C(=O)N2CCc3[nH]cnc3[C@@H]2c2nc3ccc(F)cc3o2)o1 [Example 240, (4-(difluoromethyl)-2-((R)-1-hydroxyethyl)oxazol-5-yl)((R)-4-(6-fluorobenzo[d]oxazol-2-yl)-6,7-dihydro-1H-imidazo[4,5-c]pyridin-5(4H)-yl)methanone] | 1000 to 5000
8 | Cc1nc([C@H](C)O)oc1C(=O)N1CCc2[nH]cnc2[C@H]1c1nc2ccc(F)cc2o1 [Example 241, ((S)-4-(6-fluorobenzo[d]oxazol-2-yl)-6,7-dihydro-1H-imidazo[4,5-c]pyridin-5(4H)-yl)(2-((S)-1-hydroxyethyl)-4-methyloxazol-5-yl)methanone] | 1000 to 5000
9 | Cc1nc([C@H](C)O)oc1C(=O)N1CCc2[nH]cnc2[C@@H]1c1nc2ccc(F)cc2o1 [Example 242, ((R)-4-(6-fluorobenzo[d]oxazol-2-yl)-6,7-dihydro-1H-imidazo[4,5-c]pyridin-5(4H)-yl)(2-((S)-1-hydroxyethyl)-4-methyloxazol-5-yl)methanone] | ≥ 5000
10 | C[C@H](O)c1nc(C(F)F)c(C(=O)N2CCc3[nH]cnc3[C@H]2c2nc3cccc(F)c3o2)o1 [Example 243, (4-(difluoromethyl)-2-((S)-1-hydroxyethyl)oxazol-5-yl)((S)-4-(7-fluorobenzo[d]oxazol-2-yl)-6,7-dihydro-1H-imidazo[4,5-c]pyridin-5(4H)-yl)methanone] | ≤ 500
11 | C[C@H](O)c1nc(C(F)F)c(C(=O)N2CCc3[nH]cnc3[C@@H]2c2nc3cccc(F)c3o2)o1 [Example 244, (4-(difluoromethyl)-2-((S)-1-hydroxyethyl)oxazol-5-yl)((R)-4-(7-fluorobenzo[d]oxazol-2-yl)-6,7-dihydro-1H-imidazo[4,5-c]pyridin-5(4H)-yl)methanone] | 500 to 1000
12 | C[C@@H](O)c1nc(C(F)F)c(C(=O)N2CCc3[nH]cnc3[C@H]2c2nc3cccc(F)c3o2)o1 [Example 245, (4-(difluoromethyl)-2-((R)-1-hydroxyethyl)oxazol-5-yl)((S)-4-(7-fluorobenzo[d]oxazol-2-yl)-6,7-dihydro-1H-imidazo[4,5-c]pyridin-5(4H)-yl)methanone] | ≤ 500
13 | C[C@@H](O)c1nc(C(F)F)c(C(=O)N2CCc3[nH]cnc3[C@@H]2c2nc3cccc(F)c3o2)o1 [Example 246, (4-(difluoromethyl)-2-((R)-1-hydroxyethyl)oxazol-5-yl)((R)-4-(7-fluorobenzo[d]oxazol-2-yl)-6,7-dihydro-1H-imidazo[4,5-c]pyridin-5(4H)-yl)methanone] | ≤ 500
14 | Cc1nc([C@H](C)O)oc1C(=O)N1CCc2[nH]cnc2[C@H]1c1nc2cccc(F)c2o1 [Example 247, ((S)-4-(7-fluorobenzo[d]oxazol-2-yl)-6,7-dihydro-1H-imidazo[4,5-c]pyridin-5(4H)-yl)(2-((S)-1-hydroxyethyl)-4-methyloxazol-5-yl)methanone] | 500 to 1000
15 | Cc1nc([C@H](C)O)oc1C(=O)N1CCc2[nH]cnc2[C@@H]1c1nc2cccc(F)c2o1 [Example 248, ((R)-4-(7-fluorobenzo[d]oxazol-2-yl)-6,7-dihydro-1H-imidazo[4,5-c]pyridin-5(4H)-yl)(2-((S)-1-hydroxyethyl)-4-methyloxazol-5-yl)methanone] | 1000 to 5000

Other lines, results leading:

Row | AC50 [nM] | Structure (SMILES)
16 | 500 to 1000 | CC(C)(O)c1nc(Br)c(C(=O)N2CCc3[nH]cnc3[C@H]2c2nc3ccc(F)cc3o2)o1 [Example 249, (S)-(4-bromo-2-(2-hydroxypropan-2-yl)oxazol-5-yl)(4-(6-fluorobenzo[d]oxazol-2-yl)-6,7-dihydro-1H-imidazo[4,5-c]pyridin-5(4H)-yl)methanone]
17 | ≥ 5000 | CC(C)(O)c1nc(Br)c(C(=O)N2CCc3[nH]cnc3[C@@H]2c2nc3ccc(F)cc3o2)o1 [Example 250, (R)-(4-bromo-2-(2-hydroxypropan-2-yl)oxazol-5-yl)(4-(6-fluorobenzo[d]oxazol-2-yl)-6,7-dihydro-1H-imidazo[4,5-c]pyridin-5(4H)-yl)methanone]
18 | 1000 to 5000 | CC(C)(O)c1nc(Br)c(C(=O)N2CCc3[nH]cnc3[C@@H]2c2nc3c(F)cccc3o2)o1 [Example 251, (R)-(4-bromo-2-(2-hydroxypropan-2-yl)oxazol-5-yl)(4-(4-fluorobenzo[d]oxazol-2-yl)-6,7-dihydro-1H-imidazo[4,5-c]pyridin-5(4H)-yl)methanone]
19 | ≤ 500 | CC(C)(O)c1nc(Br)c(C(=O)N2CCc3[nH]cnc3[C@H]2c2nc3c(F)cccc3o2)o1 [Example 252, (S)-(4-bromo-2-(2-hydroxypropan-2-yl)oxazol-5-yl)(4-(4-fluorobenzo[d]oxazol-2-yl)-6,7-dihydro-1H-imidazo[4,5-c]pyridin-5(4H)-yl)methanone]
20 | ≤ 500 | CC(C)(O)c1nc(C(F)(F)F)c(C(=O)N2CCc3[nH]cnc3[C@H]2c2nc3cccc(F)c3o2)o1 [Example 253, (S)-(4-(7-fluorobenzo[d]oxazol-2-yl)-6,7-dihydro-1H-imidazo[4,5-c]pyridin-5(4H)-yl)(2-(2-hydroxypropan-2-yl)-4-(trifluoromethyl)oxazol-5-yl)methanone]
21 | ≤ 500 | CC(C)(O)c1nc(C(F)(F)F)c(C(=O)N2CCc3[nH]cnc3[C@@H]2c2nc3cccc(F)c3o2)o1 [Example 254, (R)-(4-(7-fluorobenzo[d]oxazol-2-yl)-6,7-dihydro-1H-imidazo[4,5-c]pyridin-5(4H)-yl)(2-(2-hydroxypropan-2-yl)-4-(trifluoromethyl)oxazol-5-yl)methanone]
22 | ≤ 500 | CC(C)(O)c1nc(C(F)(F)F)c(C(=O)N2CCc3[nH]cnc3[C@H]2c2nc3ccc(F)cc3o2)o1 [Example 255, (S)-(4-(6-fluorobenzo[d]oxazol-2-yl)-6,7-dihydro-1H-imidazo[4,5-c]pyridin-5(4H)-yl)(2-(2-hydroxypropan-2-yl)-4-(trifluoromethyl)oxazol-5-yl)methanone]
23 | 1000 to 5000 | CC(C)(O)c1nc(C(F)(F)F)c(C(=O)N2CCc3[nH]cnc3[C@@H]2c2nc3ccc(F)cc3o2)o1 [Example 256, (R)-(4-(6-fluorobenzo[d]oxazol-2-yl)-6,7-dihydro-1H-imidazo[4,5-c]pyridin-5(4H)-yl)(2-(2-hydroxypropan-2-yl)-4-(trifluoromethyl)oxazol-5-yl)methanone]
24 | ≤ 500 | CC(C)(O)c1nc(C(F)(F)F)c(C(=O)N2CCc3[nH]cnc3[C@H]2c2nc3c(F)cccc3o2)o1 [Example 257, (S)-(4-(4-fluorobenzo[d]oxazol-2-yl)-6,7-dihydro-1H-imidazo[4,5-c]pyridin-5(4H)-yl)(2-(2-hydroxypropan-2-yl)-4-(trifluoromethyl)oxazol-5-yl)methanone]
25 | 1000 to 5000 | CC(C)(O)c1nc(C(F)(F)F)c(C(=O)N2CCc3[nH]cnc3[C@@H]2c2nc3c(F)cccc3o2)o1 [Example 258, (R)-(4-(4-fluorobenzo[d]oxazol-2-yl)-6,7-dihydro-1H-imidazo[4,5-c]pyridin-5(4H)-yl)(2-(2-hydroxypropan-2-yl)-4-(trifluoromethyl)oxazol-5-yl)methanone]
